According to the supplement of paper PMC13207355:

Assays:
Settings in all cases: exposure time: 72 h
FT3469 [1] = normal neural stem cell line; assay: phenotypic distance (Euclidean, principal components) from DMSO controls (arbitrary units); higher = stronger morphological change
E28 [2] = patient-derived glioblastoma stem cells of classical subtype; assay: as above
E34 [3] = patient-derived glioblastoma stem cells of proneural subtype; assay: as above
E31 [4] = patient-derived glioblastoma stem cells of proneural subtype; assay: as above
E21 [5] = patient-derived glioblastoma stem cells of mesenchymal subtype; assay: as above
E13 [6] = patient-derived glioblastoma stem cells of classical subtype; assay: as above
E57 [7] = patient-derived glioblastoma stem cells of mesenchymal subtype; assay: as above
FT3469 [8] = assay: surviving fraction (nuclei count normalised to DMSO); higher = more cells surviving (less toxic)
E28 [9] = assay: as above
E34 [10] = assay: as above
E31 [11] = assay: as above
E21 [12] = assay: as above
E13 [13] = assay: as above
E57 [14] = assay: as above
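Throughout, for phenotypic distance (Euclidean, principal components) from DMSO controls: cell Painting imaging in 384-well plates, CellProfiler features reduced to at least 20 principal components, Euclidean distance versus same-plate DMSO vehicle wells (0.1% v/v), median over six images per well.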
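Throughout, for surviving fraction (nuclei count normalised to DMSO): nuclei counted by high-content imaging of Hoechst-stained cells in laminin-coated 384-well plates, relative to 0.1% DMSO vehicle wells, with staurosporine as cell-death control.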

COc1cc(/C=C/C(=O)N2CCC=CC2=O)cc(OC)c1OC [Piperlongumine]
Settings	phenotypic distance	surviving fraction
E13 [6], 4.1 nM	0.433	–
E13 [6], 12.3 nM	0.675	–
E13 [6], 37 nM	0.516	–
E13 [6], 111.1 nM	2.59	–
E13 [6], 333.3 nM	0.883	–
E13 [6], 1000 nM	0.903	–
E13 [6], 3000 nM	1.87	–
E13 [13], 4.1 nM	–	0.958
E13 [13], 12.3 nM	–	0.883
E13 [13], 37 nM	–	1.05
E13 [13], 111.1 nM	–	0.818
E13 [13], 333.3 nM	–	0.823
E13 [13], 1000 nM	–	0.88
E13 [13], 3000 nM	–	0.767
E21 [5], 4.1 nM	1.09	–
E21 [5], 12.3 nM	0.626	–
E21 [5], 37 nM	0.701	–
E21 [5], 111.1 nM	0.313	–
E21 [5], 333.3 nM	0.682	–
E21 [5], 1000 nM	3.07	–
E21 [5], 3000 nM	9.28	–
E21 [12], 4.1 nM	–	1.01
E21 [12], 12.3 nM	–	0.979
E21 [12], 37 nM	–	0.997
E21 [12], 111.1 nM	–	0.997
E21 [12], 333.3 nM	–	0.908
E21 [12], 1000 nM	–	0.609
E21 [12], 3000 nM	–	0.104
E28 [2], 4.1 nM	0.727	–
E28 [2], 12.3 nM	1.04	–
E28 [2], 37 nM	0.697	–
E28 [2], 111.1 nM	0.848	–
E28 [2], 333.3 nM	0.74	–
E28 [2], 1000 nM	2.27	–
E28 [2], 3000 nM	5.12	–
E28 [9], 4.1 nM	–	1.02
E28 [9], 12.3 nM	–	1.1
E28 [9], 37 nM	–	1.13
E28 [9], 111.1 nM	–	0.988
E28 [9], 333.3 nM	–	1.03
E28 [9], 1000 nM	–	0.538
E28 [9], 3000 nM	–	0.256
E31 [4], 4.1 nM	1.19	–
E31 [4], 12.3 nM	0.591	–
E31 [4], 37 nM	0.723	–
E31 [4], 111.1 nM	0.471	–
E31 [4], 333.3 nM	1.14	–
E31 [4], 1000 nM	1.51	–
E31 [4], 3000 nM	10.8	–
E31 [11], 4.1 nM	–	0.957
E31 [11], 12.3 nM	–	1.09
E31 [11], 37 nM	–	1.19
E31 [11], 111.1 nM	–	1.12
E31 [11], 333.3 nM	–	0.938
E31 [11], 1000 nM	–	0.684
E31 [11], 3000 nM	–	0.00892
E34 [3], 4.1 nM	1.26	–
E34 [3], 12.3 nM	0.821	–
E34 [3], 37 nM	1.16	–
E34 [3], 111.1 nM	0.677	–
E34 [3], 333.3 nM	0.524	–
E34 [3], 1000 nM	0.889	–
E34 [3], 3000 nM	1.82	–
E34 [10], 4.1 nM	–	0.873
E34 [10], 12.3 nM	–	0.984
E34 [10], 37 nM	–	1.11
E34 [10], 111.1 nM	–	1.04
E34 [10], 333.3 nM	–	1.06
E34 [10], 1000 nM	–	0.863
E34 [10], 3000 nM	–	0.559
E57 [7], 4.1 nM	1.56	–
E57 [7], 12.3 nM	0.849	–
E57 [7], 37 nM	0.56	–
E57 [7], 111.1 nM	0.314	–
E57 [7], 333.3 nM	0.518	–
E57 [7], 1000 nM	1.93	–
E57 [7], 3000 nM	6.93	–
E57 [14], 4.1 nM	–	1.02
E57 [14], 12.3 nM	–	0.96
E57 [14], 37 nM	–	1.03
E57 [14], 111.1 nM	–	1.03
E57 [14], 333.3 nM	–	1.06
E57 [14], 1000 nM	–	1
E57 [14], 3000 nM	–	0.285
FT3469 [1], 4.1 nM	0.686	–
FT3469 [1], 12.3 nM	0.732	–
FT3469 [1], 37 nM	0.828	–
FT3469 [1], 111.1 nM	0.586	–
FT3469 [1], 333.3 nM	1.07	–
FT3469 [1], 1000 nM	1.12	–
FT3469 [1], 3000 nM	3.88	–
FT3469 [8], 4.1 nM	–	1.05
FT3469 [8], 12.3 nM	–	0.946
FT3469 [8], 37 nM	–	0.901
FT3469 [8], 111.1 nM	–	0.983
FT3469 [8], 333.3 nM	–	0.881
FT3469 [8], 1000 nM	–	0.866
FT3469 [8], 3000 nM	–	0.7
